Reference: patent US11401286B2 (Tetra Discovery Partners, LLC, priority 2012, dated 2022)
Where a name gives a salt, the structure may show the parent alone.

target: PDE4D7 (Homo sapiens (Human), UniProt Q08499); details: not given
Sequence (Q08499 other isoform, or with tags, fused parts or gaps): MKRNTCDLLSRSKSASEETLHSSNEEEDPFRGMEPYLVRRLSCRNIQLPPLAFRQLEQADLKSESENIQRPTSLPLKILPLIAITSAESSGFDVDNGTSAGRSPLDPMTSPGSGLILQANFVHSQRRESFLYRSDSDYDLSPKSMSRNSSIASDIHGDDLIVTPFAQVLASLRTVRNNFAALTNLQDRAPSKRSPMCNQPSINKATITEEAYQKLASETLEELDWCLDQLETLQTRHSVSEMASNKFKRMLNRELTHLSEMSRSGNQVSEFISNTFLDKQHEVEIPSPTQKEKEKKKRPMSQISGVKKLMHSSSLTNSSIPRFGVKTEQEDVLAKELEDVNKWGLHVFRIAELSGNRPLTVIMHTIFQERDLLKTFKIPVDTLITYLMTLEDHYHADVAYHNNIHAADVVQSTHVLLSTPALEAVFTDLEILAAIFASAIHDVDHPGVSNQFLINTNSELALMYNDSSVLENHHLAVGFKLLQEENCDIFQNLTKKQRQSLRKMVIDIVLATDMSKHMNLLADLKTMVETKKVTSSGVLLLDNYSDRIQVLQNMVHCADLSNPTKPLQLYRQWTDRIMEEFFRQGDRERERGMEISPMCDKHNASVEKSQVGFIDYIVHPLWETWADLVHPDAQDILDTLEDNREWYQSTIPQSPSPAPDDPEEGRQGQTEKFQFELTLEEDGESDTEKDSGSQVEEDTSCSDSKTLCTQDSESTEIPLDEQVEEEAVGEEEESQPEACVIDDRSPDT

| IC50 | SMILES |
| --- | --- |
| > 1 µM | OCCc1ccc(Nc2ccnc(-c3cccc(Cl)c3)c2)cc1 [Example 84, 2-(4-((2-(3-Chlorophenyl)pyridin-4-yl)amino)phenyl)ethanol hydrochloride] |

same assay, conditions: read-out: PDE4D7 IC50

| SMILES | IC50 |
| --- | --- |
| CCc1cc(Cc2ccc(CCO)cc2)nc(-c2cccc(Cl)c2)n1 [Example 67, 2-(4-((2-(3-Chlorophenyl)-6-ethylpyrimidin-4-yl)methyl)phenyl)ethanol] | < 1 µM |
| CCc1nc(Nc2ccc(CO)cc2)nc(-c2cccc(Cl)c2)n1 [Example 80, (4-((4-(3-Chlorophenyl)-6-ethyl-1,3,5-triazin-2-yl)amino)phenyl)methanol] | < 1 µM |
| CCc1nc(Nc2ccc(CCCO)cc2)nc(-c2cccc(Cl)c2)n1 [Example 81, 3-(4-((4-(3-Chlorophenyl)-6-ethyl-1,3,5-triazin-2-yl)amino)phenyl)propan-1-ol] | < 1 µM |
| COC(=O)Cc1ccc(Nc2cc(-c3cccc(Cl)c3)nc3c2CCC3)cn1 [Example 89, Methyl 2-(5-((2-(3-chlorophenyl)-6,7-dihydro-5H-cyclopenta[b]pyridin-4-yl)amino)pyridin-2-yl)acetate hydrochloride] | > 1 µM |
| OCCc1ccc(Nc2cc(-c3cccc(Cl)c3)nc3c2CCC3)nc1 [Example 92, 2-(6-((2-(3-Chlorophenyl)-6,7-dihydro-5H-cyclopenta[b]pyridin-4-yl)amino)pyridin-3-yl)ethanol hydrochloride] | > 1 µM |
| CN(C)CCc1ccc(Nc2cc(-c3cccc(Cl)c3)nc3c2CCC3)cc1 [Example 105, 2-(3-Chlorophenyl)-N-(4-(2-(dimethylamino)ethyl)phenyl)-6,7-dihydro-5H-cyclopenta[b]pyridin-4-amine hydrochloride] | > 1 µM |

same assay, conditions: read-out: PDE4D7 IC50; PDE4D7 without asterisk

| IC50 | SMILES |
| --- | --- |
| > 1 µM | NC(=O)Cc1ccc(Cc2nc(-c3cccc(Cl)c3)nc3c2CCC3)cc1 [Example 68, 2-(4-((2-(3-chlorophenyl)-6,7-dihydro-5H-cyclopenta[d]pyrimidin-4-yl)methyl)phenyl)acetamide] |
| > 1 µM | Cc1ccc(Cc2nc(-c3cccc(Cl)c3)nc3c2CCC3)cc1 [Example 69, 2-(3-Chlorophenyl)-4-(4-methylbenzyl)-6,7-dihydro-5H-cyclopenta[d]pyrimidine] |
| > 1 µM | Cc1ccc(C(=O)c2nc(-c3cccc(Cl)c3)nc3c2CCC3)cc1 [Example 70, (2-(3-Chlorophenyl)-6,7-dihydro-5H-cyclopenta[d]pyrimidin-4-yl)(p-tolyl)methanone] |
| < 1 µM | CCc1c(C)nc(-c2ccc(Cl)s2)nc1Nc1ccc2c(c1)COB2O [Example 71, 2-(5-chloro-2-thienyl)-5-ethyl-N-(1-hydroxy-3H-2,1-benzoxaborol-5-yl)-6-methyl-pyrimidin-4-amine] |
| < 1 µM | CCc1nc(Nc2ccc(CCOC)cc2)nc(-c2cccc(Cl)c2)n1 [Example 82, 4-(3-Chlorophenyl)-6-ethyl-N-(4-(2-methoxyethyl)phenyl)-1,3,5-triazin-2-amine] |
| > 1 µM | NC(=O)Cc1ccc(Nc2ccnc(-c3cccc(Cl)c3)c2)cc1 [Example 83, 2-(4-((2-(3-Chlorophenyl)pyridin-4-yl)amino)phenyl)acetamide hydrochloride] |
| < 1 µM | OCCCc1ccc(Nc2cc(-c3cccc(Cl)c3)nc3c2CCC3)cc1 [Example 85, 3-(4-((2-(3-Chlorophenyl)-6,7-dihydro-5H-cyclopenta[b]pyridin-4-yl)amino)phenyl)propan-1-ol hydrochloride] |
| > 1 µM | COCCc1ccc(Nc2cc(-c3cccc(Cl)c3)nc3c2CCC3)cc1 [Example 86, 2-(3-Chlorophenyl)-N-(4-(2-methoxyethyl)phenyl)-6,7-dihydro-5H-cyclopenta[b]pyridin-4-amine hydrochloride] |
| > 1 µM | COC(=O)c1ccc(Nc2cc(-c3cccc(Cl)c3)nc3c2CCC3)cc1 [Example 87, Methyl 4-((2-(3-chlorophenyl)-6,7-dihydro-5H-cyclopenta[b]pyridin-4-yl)amino)benzoatehydrochloride] |
| > 1 µM | OCc1ccc(Nc2cc(-c3cccc(Cl)c3)nc3c2CCC3)cc1 [Example 88, (4-((2-(3-Chlorophenyl)-6,7-dihydro-5H-cyclopenta[b]pyridin-4-yl)amino)phenyl)methanol] |
| > 1 µM | OC[C@H]1CC[C@H](Nc2cc(-c3cccc(Cl)c3)nc3c2CCC3)CC1 [Example 93, Trans-4-((2-(3-Chlorophenyl)-6,7-dihydro-5H-cyclopenta[b]pyridin-4-yl)amino)cyclohexyl-methanol hydrochloride] |
| > 1 µM | NC(=O)Cc1ccc(Nc2cc(-c3cccc(Cl)c3)nc3c2CCC3)nc1 [Example 94, 2-(6-((2-(3-Chlorophenyl)-6,7-dihydro-5H-cyclopenta[b]pyridin-4-yl)amino)pyridin-3-yl)acetamide hydrochloride] |
| > 1 µM | NC(=O)C[C@H]1CC[C@H](Nc2cc(-c3cccc(Cl)c3)nc3c2CCC3)CC1 [Example 96, Trans-2-(4-((2-(3-Chlorophenyl)-6,7-dihydro-5H-cyclopenta[b]pyridin-4-yl)amino)cyclohexyl)acetamide hydrochloride] |
| > 1 µM | OCC[C@H]1CC[C@H](Nc2cc(-c3cccc(Cl)c3)nc3c2CCC3)CC1 [Example 97, Trans-2-(4-((2-(3-chlorophenyl)-6,7-dihydro-5H-cyclopenta[b]pyridin-4-yl)amino)cyclohexyl)ethanol hydrochloride] |
| > 1 µM | CC(C)(O)Cc1ccc(Nc2cc(-c3cccc(Cl)c3)nc3c2CCC3)cc1 [Example 98, 1-(4-((2-(3-Chlorophenyl)-6,7-dihydro-5H-cyclopenta[b]pyridin-4-yl)amino)phenyl)-2-methylpropan-2-ol] |
| > 1 µM | COC(=O)Cc1cccc(Nc2cc(-c3cccc(Cl)c3)nc3c2CCC3)c1 [Example 100, Methyl 2-(3-((2-(3-chlorophenyl)-6,7-dihydro-5H-cyclopenta[b]pyridin-4-yl)amino)phenyl)acetate hydrochloride] |
| > 1 µM | NC(=O)Cc1cccc(Nc2cc(-c3cccc(Cl)c3)nc3c2CCC3)c1 [Example 101, 2-(3-((2-(3-Chlorophenyl)-6,7-dihydro-5H-cyclopenta[b]pyridin-4-yl)amino)phenyl)acetamide hydrochloride] |
| > 1 µM | OCCc1cccc(Nc2cc(-c3cccc(Cl)c3)nc3c2CCC3)c1 [Example 102, 2-(3-((2-(3-Chlorophenyl)-6,7-dihydro-5H-cyclopenta[b]pyridin-4-yl)amino)phenyl)ethanol hydrochloride] |
| > 1 µM | CC(O)Cc1ccc(Nc2cc(-c3cccc(Cl)c3)nc3c2CCC3)cc1 (centres unmarked) [Example 104, 1-(4-((2-(3-Chlorophenyl)-6,7-dihydro-5H-cyclopenta[b]pyridin-4-yl)amino)phenyl)propan-2-ol] |
| > 1 µM | C[C@@H](O)Cc1ccc(Nc2cc(-c3cccc(Cl)c3)nc3c2CCC3)cc1 [Example 106, (R)-1-(4-((2-(3-Chlorophenyl)-6,7-dihydro-5H-cyclopenta[b]pyridin-4-yl)amino)phenyl)propan-2-ol] |
| > 1 µM | C[C@H](O)Cc1ccc(Nc2cc(-c3cccc(Cl)c3)nc3c2CCC3)cc1 [Example 107, (S)-1-(4-((2-(3-Chlorophenyl)-6,7-dihydro-5H-cyclopenta[b]pyridin-4-yl)amino)phenyl)propan-2-ol] |
| < 1 µM | NC(=O)C(CO)Cc1ccc(Nc2cc(-c3cccc(Cl)c3)nc3c2CCC3)cc1 (centres unmarked) [Example 108, 2-(4-((2-(3-Chlorophenyl)-6,7-dihydro-5H-cyclopenta[b]pyridin-4-yl)amino)benzyl)-3-hydroxypropanamide hydrochloride] |
| > 1 µM | Cc1cc(Nc2cc(-c3cccc(Cl)c3)nc3c2CCC3)ccc1CC#N [Example 109, 2-(4-((2-(3-Chlorophenyl)-6,7-dihydro-5H-cyclopenta[b]pyridin-4-yl)amino)-2-methylphenyl)acetonitrile hydrochloride] |
| > 1 µM | FC(F)(F)Cc1ccc(Nc2cc(-c3cccc(Cl)c3)nc3c2CCC3)cc1 [Example 110, 2-(3-Chlorophenyl)-N-(4-(2,2,2-trifluoroethyl)phenyl)-6,7-dihydro-5H-cyclopenta[b]pyridin-4-amine hydrochloride] |
| > 1 µM | Cc1cc(Nc2cc(-c3cccc(Cl)c3)nc3c2CCC3)ccc1CC(N)=O [Example 111, 2-(4-((2-(3-Chlorophenyl)-6,7-dihydro-5H-cyclopenta[b]pyridin-4-yl)amino)-2-methylphenyl)acetamide hydrochloride] |
| > 1 µM | NC(=O)Cc1ccc(Nc2cc(-c3cccc(Cl)c3)nc3c2CCC3)cc1F [Example 112, 2-(4-((2-(3-Chlorophenyl)-6,7-dihydro-5H-cyclopenta[b]pyridin-4-yl)amino)-2-fluorophenyl)acetamide hydrochloride] |
| > 1 µM | OCCc1ccc(Nc2cc(-c3cccc(Cl)c3)nc3c2CCC3)cc1F [Example 113, 2-(4-((2-(3-Chlorophenyl)-6,7-dihydro-5H-cyclopenta[b]pyridin-4-yl)amino)-2-fluorophenyl)ethanol hydrochloride] |
| > 1 µM | Clc1cccc(-c2cc(Nc3ccc(Cc4ncco4)cc3)c3c(n2)CCC3)c1 [Example 114, 2-(3-Chlorophenyl)-N-(4-(oxazol-2-ylmethyl)phenyl)-6,7-dihydro-5H-cyclopenta[b]pyridin-4-amine hydrochloride] |
| > 1 µM | OCC(O)c1ccc(Nc2cc(-c3cccc(Cl)c3)nc3c2CCC3)cc1 (centres unmarked) [Example 115, 1-(4-((2-(3-Chlorophenyl)-6,7-dihydro-5H-cyclopenta[b]pyridin-4-yl)amino)phenyl)ethane-1,2-diol hydrochloride] |
| > 1 µM | CC(Oc1ccc(Nc2cc(-c3cccc(Cl)c3)nc3c2CCC3)cc1)C(N)=O (centres unmarked) [Example 116, 2-(4-((2-(3-Chlorophenyl)-6,7-dihydro-5H-cyclopenta[b]pyridin-4-yl)amino)phenoxy)propanamide hydrochloride] |

| SMILES | IC50 |
| --- | --- |
| NC(=O)Cc1ccc(Nc2cc(-c3cccc(Cl)c3)[n+]([O-])c3c2CCC3)cc1 [Example 103, 4-((4-(2-Amino-2-oxoethyl)phenyl)amino)-2-(3-chlorophenyl)-6,7-dihydro-5H-cyclopenta[b]pyridine 1-oxide] | > 1 µM |
